Results on two compounds are retold here after article PMC10580383, “Development of Melanocortin 4 Receptor Agonists by Exploiting Animal-Derived Macrocyclic, Disulfide-Rich Peptide Scaffolds” (ACS Pharmacology & Translational Science, 2023).

For assay [1], the target named is T1, human MC4R (Homo sapiens, UniProt P32245).
T1 construct: expressed in transfected cells; host or cells: HEK293T, transient co-transfection
Description: nanoluciferase complementation assay MC4R-LgBit / Gαs-SmBit (Gαs coupling). In kind it is cell-based. To be noted: for increase in efficacy in recruiting Gαs compared to α-MSH: nanoluciferase complementation MC4R-LgBit/Gαs-SmBit, normalized to α-MSH maximum response. On the procedure: We proceeded with more detailed pharmacological characterization of Pr4LP1 and Ar3LP1 to gain more insights into the signaling pathways that follow MC4R stimulation.
(§1) Figure 5 Biosensor characterization of Pr4LP1 and Ar3LP1 peptides acting as agonists at MC4R. […] Data are represented as means ± SEM for all experimental replicates and were performed in triplicate from n ≥ 3 independent experiments.
(§2) The plasmid constructs used to show interactions between human MC4R and Gαs protein and/or β-arrestin-2 were designed with fused SmBit and LgBit proteins, that upon complementation form the fully functional nanoluciferase enzyme that can produce detectable bioluminescence upon addition of the substrate furimazine. For the Gαs coupling, we used a LgBit fused at the C-terminus of MC4R (MC4R-LgBit) and cotransfected with the Gαs-SmBit construct. For the β-arrestin-2 recruitment assay, we used a C-terminally fused MC4R-SmBit and the β-arrestin-2-LgBit constructs. The cotransfection ratio was 1:10 (Gαs/β-arrestin-2/receptor). Cells were harvested, washed, and resuspended in fresh medium 24 h post-transfection. Approximately 5 × 10^4 cells/well were distributed in precoated 96-well white plates and allowed to adhere overnight. On an experimental day, cells were washed with HBSS and maintained in HBSS (80 μL/well). The furimazine substrate for the luciferase (50×) stock was diluted at 1× with HBSS, and 10 μL/well was added to all assay wells and incubated for 12 min before addition of ligands. Ligand dilutions were prepared at 10× final concentration in HBSS, and 10 μL/well was added to the assay wells. Plates were read 5 min following ligand addition using a ClarioStar equipped with a nanoluc-compatible optic module (BMG Labtech). […] EC50/Emax values were calculated via a nonlinear regression analysis.
Target sequence in this assay (P32245 whole entry): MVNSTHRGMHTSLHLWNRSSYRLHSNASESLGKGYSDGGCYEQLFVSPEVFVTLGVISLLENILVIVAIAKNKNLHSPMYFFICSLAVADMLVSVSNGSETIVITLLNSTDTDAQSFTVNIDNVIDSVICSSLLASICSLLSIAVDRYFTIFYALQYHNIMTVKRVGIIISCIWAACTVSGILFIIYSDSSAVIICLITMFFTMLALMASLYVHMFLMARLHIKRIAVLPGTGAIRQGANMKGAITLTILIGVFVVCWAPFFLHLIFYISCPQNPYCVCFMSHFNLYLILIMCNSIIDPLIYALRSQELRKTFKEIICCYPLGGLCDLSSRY

Assay [2] deals with T1, human MC4R. The experiment in a line: nanoluciferase complementation assay MC4R-SmBit / β-arrestin-2-LgBit (β-arrestin-2 recruitment). In kind it is cell-based. The conditions noted are these: for increased potency in β-arrestin-2 recruitment as compared to α-MSH: ratio of EC50 values, nanoluciferase complementation MC4R-SmBit/β-arrestin-2-LgBit; for Emax: read-out: increase in efficacy (Emax) of β-arrestin-2 recruitment compared to α-MSH. On the procedure:
as §1
Target sequence in this assay (P32245 whole entry): as above
Target sequence in this assay (P32121 whole entry partner): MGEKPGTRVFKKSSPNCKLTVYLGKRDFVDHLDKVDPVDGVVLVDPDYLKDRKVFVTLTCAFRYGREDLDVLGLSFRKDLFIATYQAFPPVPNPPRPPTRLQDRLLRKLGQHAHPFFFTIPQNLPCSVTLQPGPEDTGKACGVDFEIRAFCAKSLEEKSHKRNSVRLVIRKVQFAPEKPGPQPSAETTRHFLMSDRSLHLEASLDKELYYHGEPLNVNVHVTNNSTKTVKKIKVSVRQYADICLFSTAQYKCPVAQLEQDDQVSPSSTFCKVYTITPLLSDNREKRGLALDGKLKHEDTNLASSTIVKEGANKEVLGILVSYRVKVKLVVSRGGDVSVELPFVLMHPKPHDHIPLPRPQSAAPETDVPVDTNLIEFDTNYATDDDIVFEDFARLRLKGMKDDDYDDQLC
In an attempt to quantify signaling bias using the Black–Leff operational model by calculating ΔΔlog(τ/KA),[27]–[29] we identified a trend for preferred β-arrestin-2 recruitment over Gαs coupling, albeit not significant (data not shown).
as §2
Background: Activated receptors often draw arrestin, which recruitment assays turn into a signal.

Molecules are shown by their SMILES. Where a SMILES comes first, the peptide text is derived from it. Bridges are numbered along the chain shown (N, C = ends). [ ]: non-standard residue; d: D form.

For orientation: EC50 means the concentration giving half of the maximal effect. In general, Emax refers to the size of the effect at its maximum, as opposed to the concentration needed. In the case of `CC(C)C[C@H](NC(=O)[C@H](CCCNC(=N)N)NC(=O)CNC(=O)CNC(=O)[C@@H](N)CCCNC(=N)N)C(=O)N[C@H]1CSSC[C@@H](C(=O)N[C@H](C(=O)NCC(=O)N[C@@H](CCCNC(=N)N)C(N)=O)C(C)C)NC(=O)[C@H](Cc2ccccc2)NC(=O)[C@@H]2CSSC[C@H](NC(=O)[C@H](Cc3ccc(O)cc3)NC1=O)C(=O)N1CCC[C@H]1C(=O)N[C@@H](Cc1c[nH]cn1)C(=O)N[C@H](Cc1ccccc1)C(=O)N[C@@H](Cc1c[nH]cn1)C(=O)N[C@@H](Cc1c[nH]c3ccccc13)C(=O)N2` [Pr4LP1] (H-RGGRLCYCPH[dF]HWCFCVGR-NH2; disulfide 6-16, 8-14), at human MC4R [1], it took 0.000193 µM to reach a half-maximal effect (EC50) and the “increase in efficacy in recruiting Gαs compared to α-MSH” value was found to be 8.8%. On human MC4R [2], the EC50 was 0.0235 µM, the “increased potency in β-arrestin-2 recruitment as compared to α-MSH” value is on record as “approximately 20 fold” and the Emax was determined as 99%.
Turning to `CC(C)[C@@H]1NC(=O)[C@H](Cc2ccc(O)cc2)NC(=O)[C@H](Cc2c[nH]c3ccccc23)NC(=O)[C@@H](NC(=O)[C@H](Cc2ccccc2)NC(=O)CN)CSSC[C@@H](C(=O)N[C@@H](CC(N)=O)C(N)=O)NC(=O)[C@H](CCCNC(=N)N)NC(=O)[C@H](CCCNC(=N)N)NC(=O)[C@H](Cc2ccc(O)cc2)NC(=O)[C@@H]2CSSC[C@H](NC1=O)C(=O)N1CCC[C@H]1C(=O)N[C@@H](Cc1c[nH]cn1)C(=O)N[C@H](Cc1ccccc1)C(=O)N[C@@H](Cc1c[nH]cn1)C(=O)N[C@@H](Cc1c[nH]c3ccccc13)C(=O)N2` [Ar3LP1] (H-GFCWYVCPH[dF]HWCYRRCN-NH2; disulfide 3-17, 7-13), at human MC4R [1], a half-maximal effect (EC50) was put at 0.000702 µM and the “increase in efficacy in recruiting Gαs compared to α-MSH” value was found to be 25%. In addition, on human MC4R [2], it took 0.0252 µM to reach a half-maximal effect (EC50), the “increased potency in β-arrestin-2 recruitment as compared to α-MSH” value was “approximately 20 fold” and the Emax is 82%.
